The EC50 is the concentration giving half of the maximal effect. Broadly, the Emax is the maximal effect, on the per cent scale that the assay sets.

Each structure is given as a SMILES string. Where two headings read alike, the source gives them in different places.

What all share (format): cell-based
One test concerns the target T1, hGCGR (Homo sapiens, UniProt P47871).
T1 construct: expressed in transfected cells
As to the kind of experiment: Functional cAMP formation (HTRF) in HEK-293 clonal cells expressing hGCGR, 0.1% bovine casein, without or with 1.0% human serum albumin. The settings on record: cAMP, incubated at 37° C., 0.1% bovine casein (no human serum albumin); geometric mean; read-out: hGCGR EC50, nM (SEM, n). The protocol: (§1) After a 30-min incubation at 37° C., the resulting increase in intracellular cAMP is quantitatively determined using a CisBio cAMP Dynamic 2 HTRF Assay Kit (62AM4PEJ). Briefly, cAMP levels within the cell are detected by adding the cAMP-d2 conjugate in cell lysis buffer (10 µL) followed by the antibody anti-cAMP-Eu^3+-Cryptate, also in cell lysis buffer (10 µL). The resulting competitive assay is incubated for at least 60 min at room temperature, and then is detected using a PerkinElmer Envision® instrument with excitation at 320 nm and emission at 665 nm and 620 nm. Envision units (emission at 665 nm/620 nm* 10,000) are inversely proportional to the amount of cAMP present and are converted to nM cAMP per well us-ing a cAMP standard curve. […] A relative EC50 value and percent top (Emax) are derived by non-linear regression analysis using the percent maximal response vs. the concentration of peptide added, fitted to a four-parameter logistic equation.

For a further test, the target named is T2, hGIPR (Homo sapiens, UniProt P48546).
T2 construct: expressed in transfected cells
T2 sequence (P48546 22-466): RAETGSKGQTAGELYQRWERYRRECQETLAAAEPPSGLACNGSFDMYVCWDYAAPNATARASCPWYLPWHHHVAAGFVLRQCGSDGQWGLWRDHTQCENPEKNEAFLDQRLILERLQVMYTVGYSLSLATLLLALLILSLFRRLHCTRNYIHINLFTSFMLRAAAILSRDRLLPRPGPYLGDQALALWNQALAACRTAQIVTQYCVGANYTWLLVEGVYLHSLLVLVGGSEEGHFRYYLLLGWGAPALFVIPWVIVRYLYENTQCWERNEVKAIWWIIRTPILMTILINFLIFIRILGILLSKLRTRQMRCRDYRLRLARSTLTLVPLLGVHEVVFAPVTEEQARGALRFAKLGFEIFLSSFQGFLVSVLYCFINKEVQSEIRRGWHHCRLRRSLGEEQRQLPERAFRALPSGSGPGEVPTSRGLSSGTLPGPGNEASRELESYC
As to the kind of experiment: Functional cAMP formation (HTRF) in HEK-293 clonal cells expressing hGIPR, 0.1% bovine casein, without or with 1.0% human serum albumin. As to the method: as §1
Background: Cyclic AMP is a second messenger, typically raised through Gs and lowered through Gi signalling.

The target in the next test is hGLP-1R (Homo sapiens, UniProt P43220). As to the kind of experiment: Functional cAMP formation (HTRF) in HEK-293 clonal cells expressing hGLP-1R, 0.1% bovine casein, without or with 1.0% human serum albumin. Details: expressed in transfected cells. The settings on record: percent of maximal response to GLP-1(7-36)NH2. The protocol:
as §1

Where [1] appears, read: HEK293, 0.1% bovine casein and 1.0% human serum albumin, 37° C., percent of maximal response to GIP(1-42)NH2, read-out: hGIPR Emax, % ± SEM.

Sequence of hGLP-1R (P43220 24-463): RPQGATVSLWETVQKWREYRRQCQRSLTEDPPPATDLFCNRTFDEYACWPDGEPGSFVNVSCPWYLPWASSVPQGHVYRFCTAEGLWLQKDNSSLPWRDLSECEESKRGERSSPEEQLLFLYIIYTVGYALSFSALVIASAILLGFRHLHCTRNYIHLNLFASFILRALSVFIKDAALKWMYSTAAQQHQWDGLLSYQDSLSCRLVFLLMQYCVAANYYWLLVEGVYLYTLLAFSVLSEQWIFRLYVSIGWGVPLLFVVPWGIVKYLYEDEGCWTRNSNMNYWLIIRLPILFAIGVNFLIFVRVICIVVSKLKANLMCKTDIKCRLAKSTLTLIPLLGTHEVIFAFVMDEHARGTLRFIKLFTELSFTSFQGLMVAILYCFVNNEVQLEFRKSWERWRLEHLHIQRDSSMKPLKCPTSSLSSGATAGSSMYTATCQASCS
T1 sequence (P47871 26-477): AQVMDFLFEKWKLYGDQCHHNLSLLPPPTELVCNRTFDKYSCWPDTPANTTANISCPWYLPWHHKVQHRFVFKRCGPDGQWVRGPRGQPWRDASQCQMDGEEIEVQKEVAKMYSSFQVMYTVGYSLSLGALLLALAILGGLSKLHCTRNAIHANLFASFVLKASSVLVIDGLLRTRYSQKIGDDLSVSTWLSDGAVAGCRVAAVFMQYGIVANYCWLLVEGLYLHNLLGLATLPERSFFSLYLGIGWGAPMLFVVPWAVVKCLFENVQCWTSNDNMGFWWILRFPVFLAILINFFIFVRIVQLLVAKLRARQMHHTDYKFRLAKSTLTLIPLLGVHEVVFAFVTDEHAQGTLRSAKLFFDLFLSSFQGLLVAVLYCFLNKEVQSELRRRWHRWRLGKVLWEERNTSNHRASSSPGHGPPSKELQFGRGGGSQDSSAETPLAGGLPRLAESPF

As for `CC[C@H](C)[C@H](NC(=O)[C@H](CC(C)C)NC(=O)[C@](C)(Cc1ccc(O)cc1)NC(=O)[C@@H](CCC(=O)O)NC(=O)[C@@H](NC(=O)[C@H](Cc1ccccc1)NC(=O)[C@H](CCC(=O)O)NC(=O)C(C)(C)NC(=O)[C@H](CCC(N)=O)NC(=O)[C@H](C)NC(=O)[C@H](CCCCNC(=O)COCCOCCNC(=O)COCCOCCNC(=O)CC[C@H](NC(=O)CCCCCCCCCCCCC(=O)O)C(=O)O)NC(=O)[C@H](CCCN)NC(=O)[C@H](CC(=O)O)NC(=O)[C@H](CC(C)C)NC(=O)[C@](C)(CC(C)C)NC(=O)[C@@H](NC(=O)[C@H](CO)NC(=O)[C@H](Cc1ccc(C(=O)O)cc1)NC(=O)[C@H](CC(=O)O)NC(=O)[C@H](CO)NC(=O)[C@@H](NC(=O)[C@](C)(Cc1ccccc1F)NC(=O)[C@@H](NC(=O)CNC(=O)[C@H](CCC(=O)O)NC(=O)C(C)(C)NC(=O)[C@@H](N)Cc1ccc(O)cc1)[C@@H](C)O)[C@@H](C)O)[C@@H](C)CC)[C@@H](C)CC)C(=O)N[C@@H](CCC(=O)O)C(=O)NCC(=O)NCC(=O)N[C@@H](CCCCNC(=O)COCCOCCNC(=O)COCCOCCNC(=O)CC[C@H](NC(=O)CCCCCCCCCCCCC(=O)O)C(=O)O)C(=O)N[C@@H](CO)C(=O)N[C@@H](CO)C(=O)NCC(=O)N[C@@H](C)C(=O)N1CCC[C@H]1C(=O)N1CCC[C@H]1C(=O)N1CCC[C@H]1C(=O)N[C@@H](CO)C(N)=O` [Example 96], at hGCGR, the concentration giving a half-maximal response (EC50) is above 9950 nM.

For `CC[C@H](C)[C@H](NC(=O)[C@H](CC(C)C)NC(=O)[C@](C)(Cc1ccc(O)cc1)NC(=O)[C@@H](CCC(=O)O)NC(=O)[C@@H](NC(=O)[C@H](Cc1ccccc1)NC(=O)[C@H](CCC(=O)O)NC(=O)C(C)(C)NC(=O)[C@H](CCC(N)=O)NC(=O)[C@H](C)NC(=O)[C@H](CCCCNC(=O)COCCOCCNC(=O)COCCOCCNC(=O)CC[C@H](NC(=O)CCCCCCCCCCCCC(=O)O)C(=O)O)NC(=O)[C@H](CCCN)NC(=O)[C@H](CC(=O)O)NC(=O)[C@H](CC(C)C)NC(=O)[C@](C)(CC(C)C)NC(=O)[C@@H](NC(=O)[C@H](CO)NC(=O)[C@H](Cc1csc2ccccc12)NC(=O)[C@H](CC(=O)O)NC(=O)[C@H](CO)NC(=O)[C@@H](NC(=O)[C@](C)(Cc1ccccc1F)NC(=O)[C@@H](NC(=O)CNC(=O)[C@H](CCC(=O)O)NC(=O)C(C)(C)NC(=O)[C@@H](N)Cc1ccc(O)cc1)[C@@H](C)O)[C@@H](C)O)[C@@H](C)CC)[C@@H](C)CC)C(=O)N[C@@H](CCC(=O)O)C(=O)NCC(=O)NCC(=O)N[C@@H](CCCCNC(=O)COCCOCCNC(=O)COCCOCCNC(=O)CC[C@H](NC(=O)CCCCCCCCCCCCC(=O)O)C(=O)O)C(=O)N[C@@H](CO)C(=O)N[C@@H](CO)C(=O)NCC(=O)N[C@@H](C)C(=O)N1CCC[C@H]1C(=O)N1CCC[C@H]1C(=O)N1CCC[C@H]1C(=O)N[C@@H](CO)C(N)=O` [Example 142], at hGCGR, the 50% effective concentration (EC50) was above 9950 nM.

In the case of `CC[C@H](C)[C@H](NC(=O)[C@H](CC(C)C)NC(=O)[C@](C)(Cc1ccc(O)cc1)NC(=O)[C@@H](CCC(=O)O)NC(=O)[C@@H](NC(=O)[C@H](Cc1ccccc1)NC(=O)[C@H](CCCN)NC(=O)C(C)(C)NC(=O)[C@H](CCC(N)=O)NC(=O)[C@H](C)NC(=O)[C@H](CCCCNC(=O)COCCOCCNC(=O)COCCOCCNC(=O)CC[C@H](NC(=O)CCCCCCCCCOc1ccc(C(=O)O)cc1)C(=O)O)NC(=O)[C@H](CCCN)NC(=O)[C@H](CC(=O)O)NC(=O)[C@H](CC(C)C)NC(=O)[C@](C)(CC(C)C)NC(=O)[C@@H](NC(=O)C(C)(C)NC(=O)[C@H](Cc1ccncc1)NC(=O)[C@H](CC(=O)O)NC(=O)[C@H](CO)NC(=O)[C@@H](NC(=O)[C@](C)(Cc1ccccc1F)NC(=O)[C@@H](NC(=O)CNC(=O)[C@H](CCC(=O)O)NC(=O)C(C)(C)NC(=O)[C@@H](N)Cc1ccc(O)cc1)[C@@H](C)O)[C@@H](C)O)[C@@H](C)CC)[C@@H](C)CC)C(=O)N[C@@H](CCCCNC(=O)COCCOCCNC(=O)COCCOCCNC(=O)CC[C@H](NC(=O)CCCCCCCCCOc1ccc(C(=O)O)cc1)C(=O)O)C(=O)NCC(=O)NCC(=O)N1CCC[C@H]1C(=O)N[C@@H](CO)C(=O)N[C@@H](CO)C(=O)NCC(=O)N[C@@H](C)C(=O)N1CCC[C@H]1C(=O)N1CCC[C@H]1C(=O)N1CCC[C@H]1C(=O)N[C@@H](CO)C(N)=O` [Example 351], the Emax amounted to 67.9% at hGIPR (HEK293, read-out: hGIPR Emax, % ± SEM, cAMP, 37° C., 0.1% bovine casein and 1.0% human serum albumin, percent of maximal response to GIP(1-42)NH2); 91% on hGLP-1R (HEK293, read-out: hGLP-1R Emax, % ± SEM, cAMP, 37° C., 0.1% bovine casein and 1.0% human serum albumin); 100% on hGLP-1R (HEK293, read-out: hGLP-1R Emax, % ± SEM, cAMP, 37° C., 0.1% bovine casein, arithmetic mean).

Consider `CC[C@H](C)[C@H](NC(=O)[C@H](CC(C)C)NC(=O)[C@](C)(Cc1ccc(O)cc1)NC(=O)[C@@H](CCC(=O)O)NC(=O)[C@@H](NC(=O)[C@H](Cc1ccccc1)NC(=O)[C@H](CCC(=O)O)NC(=O)C(C)(C)NC(=O)[C@H](CCC(N)=O)NC(=O)[C@H](C)NC(=O)[C@H](CCCCNC(=O)[C@@H](N)CCCCNC(=O)CC[C@H](NC(=O)CC[C@H](NC(=O)CCCCCCCCCCCCC(=O)O)C(=O)O)C(=O)O)NC(=O)[C@H](CCCN)NC(=O)[C@H](CC(=O)O)NC(=O)[C@H](CC(C)C)NC(=O)[C@](C)(CC(C)C)NC(=O)[C@@H](NC(=O)[C@H](CO)NC(=O)[C@H](Cc1ccncc1)NC(=O)[C@H](CC(=O)O)NC(=O)[C@H](CO)NC(=O)[C@@H](NC(=O)[C@](C)(Cc1ccccc1F)NC(=O)[C@@H](NC(=O)CNC(=O)[C@H](CCC(=O)O)NC(=O)C(C)(C)NC(=O)[C@@H](N)Cc1ccc(O)cc1)[C@@H](C)O)[C@@H](C)O)[C@@H](C)CC)[C@@H](C)CC)C(=O)N[C@@H](CCC(=O)O)C(=O)NCC(=O)NCC(=O)N[C@@H](CCCCNC(=O)[C@@H](N)CCCCNC(=O)CC[C@H](NC(=O)CC[C@H](NC(=O)CCCCCCCCCCCCC(=O)O)C(=O)O)C(=O)O)C(=O)N[C@@H](CO)C(=O)N[C@@H](CO)C(=O)NCC(=O)N[C@@H](C)C(=O)N1CCC[C@H]1C(=O)N1CCC[C@H]1C(=O)N1CCC[C@H]1C(=O)N[C@@H](CO)C(N)=O` [Example 39], for which the Emax on hGIPR (setting [1]) stood at 86.8 ± 3.27%; at hGIPR (HEK293, percent of maximal response to GIP(1-42)NH2, 37° C., 0.1% bovine casein, arithmetic mean, read-out: hGIPR Emax, % ± SEM), 96.5 ± 1.44%.

`CC[C@H](C)[C@H](NC(=O)[C@H](CC(C)C)NC(=O)[C@](C)(Cc1ccc(O)cc1)NC(=O)[C@@H](CCC(=O)O)NC(=O)[C@@H](NC(=O)[C@H](Cc1ccccc1)NC(=O)[C@H](CCC(=O)O)NC(=O)C(C)(C)NC(=O)[C@H](CCC(N)=O)NC(=O)[C@H](C)NC(=O)[C@H](CCCCNC(=O)COCCOCCNC(=O)COCCOCCNC(=O)CCCCCCCCCCCCC(=O)O)NC(=O)[C@H](CCCN)NC(=O)[C@H](CC(=O)O)NC(=O)[C@H](CC(C)C)NC(=O)[C@](C)(CC(C)C)NC(=O)[C@@H](NC(=O)[C@H](CO)NC(=O)[C@H](Cc1ccc2ccccc2c1)NC(=O)[C@H](CC(=O)O)NC(=O)[C@H](CO)NC(=O)[C@@H](NC(=O)[C@](C)(Cc1ccccc1F)NC(=O)[C@@H](NC(=O)CNC(=O)[C@H](CCC(=O)O)NC(=O)C(C)(C)NC(=O)[C@@H](N)Cc1ccc(O)cc1)[C@@H](C)O)[C@@H](C)O)[C@@H](C)CC)[C@@H](C)CC)C(=O)N[C@@H](CCC(=O)O)C(=O)NCC(=O)NCC(=O)N1CCC[C@H]1C(=O)N[C@@H](CO)C(=O)N[C@@H](CO)C(=O)NCC(=O)N[C@@H](C)C(=O)N1CCC[C@H]1C(=O)N1CCC[C@H]1C(=O)N1CCC[C@H]1C(=O)N[C@@H](CO)C(=O)N[C@@H](CCCCNC(=O)COCCOCCNC(=O)COCCOCCNC(=O)CCCCCCCCCCCCC(=O)O)C(N)=O` [Example 257]: the Emax at hGIPR (setting [1]) came to 72.2%; on hGIPR (HEK293, cAMP, 37° C., 0.1% bovine casein, percent of maximal response to GIP(1-42)NH2, arithmetic mean, read-out: hGIPR Emax, % ± SEM), 90.3%; on hGLP-1R (HEK293, cAMP, 37° C., 0.1% bovine casein, arithmetic mean, read-out: hGLP-1R Emax, % ± SEM), 82%.
